# According to patent publication US5098613A, “Anti-inflammatory agents” (Eli Lilly and Company, priority 1990, dated 1992):
# Experiments:
# [1] = system: Arachidonic Acid Induced Ear Edema; experiment: Arachidonic Acid-Induced Ear Edema Assay; type: in vivo, Female BALB/C mice; conditions: Mus musculus, 1 h, topical, one hour prior to arachidonic acid, read-out: Percent Inhibition of Ear Swelling; for inhibition in vivo at 1 %: 1% in ethanol gel; for inhibition in vivo at 0.05 %: 0.05% in ethanol gel
# Description: Female BALB/C mice (Charles River; 18-20 rams) were divided into groups of five. Arachidonic acid was dissolved in ethanol at a concentration of 200 mg/ml. Each mouse received 2 mg/ear of arachidonic acid on the inner surface of the right ear. This dose of phlogistic was applied by an automatic pipette in 10 mcl volumes. The left ear (control) received ethanol. Drugs were applied topically in an ethanol-based gel to the entire outer surface of both ears one hour prior to arachidonic acid application. Edema was measured by the increase in ear weight. An hour after arachidonic acid solution or vehicle was applied, an ear sample of 7 mm in diameter was obtained from both ears. Ear edema was calculated by subtracting the […], dividing by the weight of the left/Control ear, and averaging the results for each group of mice according to compound and concentration.
# [2] = molecular target: T1, leukotriene B4 specific receptor on the membrane of human neutrophils (Homo sapiens, UniProt Q15722); experiment: Inhibition of Binding of ^3 H-LTB4 to Peripheral Human Neutrophils; conditions: 4° C., 10 minutes; for inhibition at 10 µM: drug concentration 10^-5 M, read-out: LTB4 Binding Inhibition; for inhibition at 1 µM: drug concentration 10^-6 M; for inhibition at 0.1 µM: drug concentration 10^-7 M
# T1 construct: incubating neutrophils (1×10^7 cells) with 0.1-0.2 nM ^3 H-LTB4; endogenous in cells; host or cells: human peripheral blood neutrophils (buffy coats of two blood donors)
# Procedure, shortened: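 Freshly isolated human donor neutrophils (1×10^7 cells) in HBSS/0.1% ovalbumin pH 7.3 were incubated with 0.1-0.2 nM ^3H-LTB4 and compound at 1×10^-5 or 1×10^-6 M for 10 min at 4 °C. Bound ligand was separated by centrifugation through phthalate oil and counted, then corrected for nonspecific binding and compared with compound-free control.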
# [3] = system: inflammation created by injecting carrageenin into the hind paws of rats; experiment: Carrageenin Assay; type: in vivo; conditions: Rattus norvegicus, ip, 50 mg/kg i.p., prior to carrageenin injection, read-out: Percent Inhibition (Antiinflammatory Activity in the Carrageenin Assay)
# Description: The compounds were evaluated for antiinflammatory activity in the test method described by C. A. Winter, Proc. Soc. Exp. Biol. Med., 111, 544 (1962). In this test, inflammation is created by injecting carrageenin into the hind paws of rats. Test compounds are administered prior to injection to determine percent inhibition of the subsequent inflammation in comparison with control animals.
# [4] = system: shock after E. coli LPS and galactosamine (GALN) challenge; experiment: Mouse Endotoxin Shock Assay; type: in vivo, C57BL/6 male mice; conditions: LPS/GALN s.c. challenge, results 48 hours after challenge, Reed Muench Method
# Description: Compounds were given to 18-20 g C57BL/6 male mice using various regimens depending upon mode of administration. Control animals received corresponding vehicles only. The mice were then challenged with 0.2 ml of chromatographically purified 0111:B4 E. coli LPS and galactosamine hydrochloride (GALN) given subcutaneously (back of the neck). GALN was given at an approximate dose of 500 mg/kg whereas the LPS dose ranged between 0.3-1.2 μg/mouse (15-60 μg/k9). Control animals generally die of shock 7-15 hours after administration of LPS/GALN although a small number (0-5%) may die 24-48 hours after such administration. Calculation of the EDso for each compound was performed using the Reed Muench Method for results obtained 48 hours after challenge.
# [5] = system: IL-1 induced T-cell Proliferation; experiment: Anti IL-1 Activity (Thymocyte Assay): suppression of IL-1 induced T-cell proliferation; type: cell-based, C3H/HeJ male mice; conditions: mouse thymocytes, 48 hours, read-out: Percent T-cell suppression; for inhibition at 1 µg/mL: 1 mcg/ml; for inhibition at 10 µg/mL: 10 mcg/ml
# Description: Thymus from 3-4 week old C3H/HeJ male mice and were passed through a #100 mesh screen to make a single cell suspension. The cells were suspended in RPMI-1640 supplemented with 2×10^-5 M 2-mercaptoethanol, 3% fetal calf serum, and 1% Penicillin/Streptomycin. The cell suspension was placed in a tissue culture flask and incubated at 37° C. in 5% carbon dioxide in air for 1-2 hours. The thymocytes were decanted, leaving adherent cells behind, and the liquid was centrifuged at 1400 rpm for 10 minutes. After decanting the supernatant, the cells were resuspended and counted with a hemocytometer. The density was adjusted to […]. Fifty μ1 of the suspension were added to each well of a 96-well microtiter plate, followed by the addition of 25 μl of PHA and 25 μl IL-1 (1:25 dilution of a 10 mcg/ml stock solution) per well.
# Each compound to be tested was dissolved in 30% DMSO/70% PBS to make a stock solution of 1 mg/ml. Fifteen μl of each compound were added to 300 μl of media in the serial dilution plate. Twenty-five μl of each drug were added to the test plate in quadruplicate wells across the plate. The plate was incubated at 37° C. in 5% carbon dioxide in air for 48 hours. The wells were pulsed with tritiated thymidine (5 μCi.well) for 4 hours before harvesting on a Skatron cell harvester. The filter discs were placed in mini-vials, scintillation fluid (Tol-Pop) was added, and the vials counted. The percent of counts for each vial compared with control samples wherein no compound was added (vehicles only) was determined for each compound and are reported as Table III below as the percent T-ce1 suppression.
# T1 sequence (Q15722 whole entry): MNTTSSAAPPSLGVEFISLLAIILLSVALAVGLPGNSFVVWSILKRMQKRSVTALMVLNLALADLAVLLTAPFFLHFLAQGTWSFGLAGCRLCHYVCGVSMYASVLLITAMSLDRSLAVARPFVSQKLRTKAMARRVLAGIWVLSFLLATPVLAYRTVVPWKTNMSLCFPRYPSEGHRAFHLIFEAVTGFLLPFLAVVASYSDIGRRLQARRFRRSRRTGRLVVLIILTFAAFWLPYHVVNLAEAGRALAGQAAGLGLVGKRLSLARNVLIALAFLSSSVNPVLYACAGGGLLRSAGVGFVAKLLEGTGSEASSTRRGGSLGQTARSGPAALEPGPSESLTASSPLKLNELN
SMILES,inhibition at 10 µM [2],inhibition at 1 µM [2],inhibition in vivo at 1 % [1],inhibition in vivo at 50 mg/kg [3],ED50 [4],inhibition in vivo at 0.05 % [1],inhibition at 1 µg/mL [5],inhibition at 10 µg/mL [5],inhibition at 0.1 µM [2],inhibition in vivo at 0.01 % ([1]; 0.01% in ethanol gel)
"C=CCc1cc(C(C)=O)c(O)cc1OCc1ccc(C#N)cc1 [Example 48, 4[(4-Acetyl-5-hydroxy-2-allylphenoxy)-methyl]benzonitrile]",22%,28%,,30%,18.6 mg/kg,13.6%,,,,
CCc1cc(C(C)=O)c(O)cc1OCc1cccc(C#N)c1 [Example 55],60%,71%,57%,70%,3.1 mg/kg,43 to 59%,,,25%,
CCc1cc(C(C)=O)c(OC)cc1OCc1cccc(C#N)c1 [Example 114],52%,8%,,,,40%,,,,44%
CCc1cc(C(C)=O)c(O)cc1OCc1cccc(C(=O)OC)c1 [Example 93],64%,22%,,,25 mg/kg,,,,,
"C=CCc1cc(C(C)=O)c(O)cc1OCc1ccccc1 [Example 47, 2-Hydroxy-4-benzyloxy-5-allylacetophenone]",32%,5%,,53 to 65%,24 mg/kg,52%,,,,
"CCc1cc(C(C)=O)c(O)cc1OCCCCc1nn[nH]n1 [Example 110, 5-Ethyl-2-hydroxy-4-[4-(lH-tetrazol-5-y)butoxy]acetophenone]",49%,19%,58%,64%,,,,,,
"C=CCc1cc(C(C)=O)c(O)cc1OCc1ccccc1C#N [Example 49, 2-[(4-Acetyl-5-hydroxy-2-allylphenoxy)-methyl]benzonitrile]",47%,15%,,43%,> 50 mg/kg,31%,,,,
"CCc1cc(C(C)=O)c(O)cc1OCCCCc1nnn(C)n1 [Example 123, 2-Hydroxy-4-[4-(2-methyl-2H-tetrazol-5-yl)butoxy]-5-ethylacetophenone]",98%,60%,58%,55%,,,36%,90%,,
"CCc1cc(C(C)=O)c(O)cc1OCc1cccc(F)c1 [Example 54, 5-Ethyl-4-(3-fluorobenzyloxy)-2-hydroxy-acetophenone]",42%,32%,,,21 mg/kg,,,,,
C=CCc1cc(C(C)=O)c(O)cc1OCc1cccc(-c2nnn(C)n2)c1 [Example 121],27 to 38%,34 to 38%,,,,0%,,,,

# More lines, main results first:
inhibition at 10 µM [2],inhibition at 1 µM [2],SMILES,inhibition in vivo at 1 % [1],inhibition in vivo at 50 mg/kg [3],ED50 [4],inhibition in vivo at 0.05 % [1],inhibition at 1 µg/mL [5],inhibition at 10 µg/mL [5],inhibition at 0.1 µM [2],inhibition in vivo at 0.01 % ([1]; 0.01% in ethanol gel)
84%,28%,"C=CCc1cc(C(C)=O)c(O)cc1OCCCCCC(=O)NO [Example 100, 6-(4-Acetyl-5-hydroxy-2-allylphenoxy)-droxyhexanamide]",18%,38%,,,,,,
100%,77%,"CCc1cc(C(C)=O)c(O)cc1OCCCC(C)(C)c1nnn[nH]1 [Example 136, 1-(5-Ethyl-2-hydroxy-4-{[4-methyl-4-(1H-tetrazol-5-yl)pentyl]oxy}phenyl)ethanone]",,41%,,,,,,
94%,59%,"CCc1cc(C(C)=O)c(O)cc1OCCCCCCc1nnn[nH]1 [Example 140, 1-(5-Ethyl-2-hydroxy-4-{[6-(1H-tetrazol-5-yl)-hexyl]oxy}phenyl)ethanone]",,31%,,,,,,
100%,61%,"CCc1cc(C(C)=O)c(O)cc1OCCCCCCC(=O)N(C)C [Example 98, 7-(4-Acetyl-2-ethyl-5-hydroxyphenoxy)-N,N-dimethylheptanamide]",17%,,,,14%,85%,,
5%,13%,"CCCc1cc(C(C)=O)c(O)cc1OCCCc1ccccc1 [Example 53, 2-Hydroxy-4-(3-phenylpropoxy)-5-propyl-acetophenone]",,50 to 60%,,24%,,,,
102%,72%,"CCc1cc(C(C)=O)c(O)cc1OCCCCCCC#N [Example 20, 7-(4-Acetyl-2-ethyl-5-hydroxyphenoxy)-heptanenitrile]",,19%,,,39%,99%,,
42%,15%,"CCc1cc(C(C)=O)c(O)cc1OCc1cccc(Cl)c1 [Example 56, 4-(3-Chlorobenzyloxy)-5-ethyl-2-hydroxyacetophenone]",,,,6%,,,,
104%,73%,"CCc1cc(C(C)=O)c(O)cc1OCCCCCC(C)(C)C(=O)O [Example 87, 7-(4-Acetyl-2-ethyl-5-hydroxyphenoxy)-2,2-dimethylheptanoic acid]",3%,15%,,,,,20%,
58%,23%,"CCc1cc(C(C)=O)c(O)cc1OCc1cccc(SC)c1 [Example 59, 4-(3-Methylmercaptobenzyloxy)-5-ethyl-2-hydroxyacetophenone]",,,,0%,,,,
90%,61%,"CCc1cc(C(C)=O)c(O)cc1OCCCCC#N [Example 19, 5-(4-Acetyl-2-ethyl-5-hydroxyphenoxy)-pentanenitrile]",,26%,,,,,,
78%,38%,"C=CCc1cc(C(C)=O)c(O)cc1OCCCCCCSC [Example 78, 2-Hydroxy-4-[6-(methylthio)hexyloxy]-5-allylaoetophenone]",46%,,,,,,,
48%,23%,"CCc1cc(C(=O)c2ccccc2)c(O)cc1OCCCCC#N [Example 130, 5-(4-Benzoyl-2-ethyl-5-hydroxyphenoxy)pentane-nitrile]",,,,,41%,99%,,
40%,20%,CCc1cc(C(=O)c2cccc(C(=O)O)c2)c(O)cc1OCCCCC#N [Example 92],,,,,5%,38%,,
